Experimental data as given in ChEMBL document CHEMBL1126518, “EPSP synthase inhibitor design II. The importance of the 3-phosphate group for ligand binding at the shikimate-3-phosphate site & the identification of 3-malonate ethers as novel 3-phosphate mimics” (Bioorg Med Chem Lett, 1993).

B1: 3-phosphoshikimate 1-carboxyvinyltransferase (Escherichia coli K-12), P0A6D3 (protein)
chain: MESLTLQPIARVDGTINLPGSKSVSNRALLLAALAHGKTVLTNLLDSDDVRHMLNALTALGVSYTLSADRTRCEIIGNGGPLHAEGALELFLGNAGTAMRPLAAALCLGSNDIVLTGEPRMKERPIGHLVDALRLGGAKITYLEQENYPPLRLQGGFTGGNVDVDGSVSSQFLTALLMTAPLAPEDTVIRIKGDLVSKPYIDITLNLMKTFGVEIENQHYQQFVVKGGQSYQSPGTYLVEGDASSASYFLAAAAIKGGTVKVTGIGRNSMQGDIRFADVLEKMGATICWGDDYISCTRGELNAIDMDMNHIPDAAMTIATAALFAKGTTTLRNIYNWRVKETDRLFAMATELRKVGAEVEEGHDYIRITPPEKLNFAEIATYNDHRMAMCFSLVALSDTPVTILDPKCTAKTFPDYFEQLARISQAA

These molecules were tested against T1, 3-phosphoshikimate 1-carboxyvinyltransferase (Escherichia coli K-12, UniProt P0A6D3) (assay: Inhibition of Escherichia coli EPSP(5-enolpyruvyl-shikimate-3-phosphate) Synthase).
T1 sequence (P0A6D3 whole entry): B1 chain

| Molecule | IC50 [mM] |
| --- | --- |
| O=C(O)C1=CC(CP(=O)(O)O)CCC1 (stereo not drawn) | > 90 |
| O=C(O)C1=CC(OC(C(=O)O)C(=O)O)CCC1 (stereo not drawn) | 15 |
| O=C(O)CO[C@@H]1CC(C(=O)O)=C[C@@H](O)[C@H]1O | > 90 |
| O=C(O)CO[C@@H]1CC(C(=O)O)=C[C@@H](OP(=O)(O)O)[C@H]1O | 0.1 |
| O=C(CP(=O)(O)O)O[C@@H]1CC(C(=O)O)=C[C@@H](O)[C@H]1O | > 90 |
| O=C(O)C1=C/C(=C\P(=O)(O)O)CCC1 | > 90 |
| O=C(O)C1=CC(OP(=O)(O)O)CCC1 (stereo not drawn) | 7.5 |
| O=C(O)C1=CC(OCP(=O)(O)O)CCC1 (stereo not drawn) | > 90 |
| O=C(O)C1=C/C(=C/P(=O)(O)O)CCC1 | > 90 |
| O=C(O)C1=CC(C(C(=O)O)C(=O)O)CCC1 (stereo not drawn) | > 90 |
| C=C(O[C@@H]1CC(C(=O)O)=C[C@@H](O)[C@H]1O)C(=O)O | > 90 |

Each molecule was assayed against T2, 3-phosphoshikimate 1-carboxyvinyltransferase (Escherichia coli K-12) (UniProt P0A6D3) (assay: (§1) Enzyme Kinetic activity was calculated against Escherichia coli EPSP(5-enolpyruvyl-shikimate-3-phosphate) Synthase).
T2 sequence (whole entry): B1 chain

| Molecule | k cat [s⁻¹] |
| --- | --- |
| C=C(O[C@@H]1CC(C(=O)O)=C[C@@H](O)[C@H]1O)C(=O)O | 0.2 |

What follows are molecules tested on C=C(O[C@@H]1CC(C(=O)O)=C[C@@H](O)[C@H]1O)C(=O)O (assay: as §1).

| Molecule | Km [mM] |
| --- | --- |
| B1 | 24 |
